Experimental data from PubChem BioAssay (NCI).
Where “and” joins values, the source holds several entries; their conditions need not be identical. Equal entries are not always repeated.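 Compound exposure: 48 hours, 5 concentrations, 96-well plates. GI50: concentration for 50% inhibition of growth. At the TGI there is no net growth.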

Key:
Assay in all cases: NCI-60 cell line screen, 48 h
PC-3 prostate = test system: PC-3 prostate
OVCAR-3 ovarian = test system: OVCAR-3 ovarian
EKVX NSCLC = test system: EKVX NSCLC
HOP-62 NSCLC = test system: HOP-62 NSCLC
UACC-257 melanoma = test system: UACC-257 melanoma
TK-10 renal = test system: TK-10 renal
NCI-H226 lung = test system: NCI-H226 lung
UO-31 renal = test system: UO-31 renal
MDA-MB-231 breast = test system: MDA-MB-231 breast
K-562 leukemia = test system: K-562 leukemia

Row | Compound | TGI (PC-3 prostate) [µM] | TGI (OVCAR-3 ovarian) | TGI (EKVX NSCLC) [µM] | TGI (HOP-62 NSCLC) [µM] | TGI (UACC-257 melanoma) [µM] | TGI (TK-10 renal) [µM] | TGI (NCI-H226 lung) [µM] | TGI (UO-31 renal) | TGI (MDA-MB-231 breast) [µM] | TGI (K-562 leukemia) [µM] | GI50 (NCI-H226 lung)
1 | CCCCCC(=O)OCC1(CO)C/C(=C/CC(C(C)C)C(C)C)C(=O)O1 (configuration not stated) | > 75 | > 75 µM | > 75 | > 75 | > 75 | > 75 | > 75 | 38.2 µM | > 75 |  | 
2 | CN(C)CCSc1nccc(-c2ccc(-c3ccnc(SCCN(C)C)n3)s2)n1 |  | 31.2 µM | 37.4 | 30.6 | 31.1 |  | 27.7 | 16.6 µM |  | 23.2 | 
3 | CC(=O)OC1COC(n2c(N)c(C#N)c(-c3ccccc3)c(C#N)c2=S)C(OC(C)=O)C1OC(C)=O (configuration not stated) | > 100 | > 100 µM and 97.2 µM | > 100 | > 100 | > 100 | 94 | > 100 | > 100 µM and 67.8 µM | > 100 |  | 41.6 µM and 89.4 µM
4 | C/C(=C\c1ccccc1)n1c(=O)cc(C)n1C | > 100 | > 100 µM | > 100 | > 100 | > 100 | > 100 | > 100 | > 100 µM |  | > 100 | 
5 | COc1ccc(Cn2nc(OCc3ccccc3)c3cc([N+](=O)[O-])ccc32)cc1 |  | > 100 µM |  | > 100 | > 100 | > 100 | > 100 |  | > 100 | > 100 | 
6 | COc1ccc(-c2nc3ncccn3c2-c2ccc(S(C)(=O)=O)cc2)cc1 | > 100 | > 100 µM |  | > 100 | > 100 |  |  | > 100 µM | > 100 | > 100 | 
7 | CC1=NNC(N)=N/C1=C\C(Sc1ccc(Cl)cc1)c1ccc(Cl)cc1Cl (configuration not stated) | 26.4 |  | 32.7 | 57.8 | 39.9 | 45.9 | 36.2 | 27 µM | > 52.3 | 56.3 | 
8 | CCN(CC)CCC1(C(=O)OC)SCCc2ccc(C)cc21 (configuration not stated) | > 100 | > 100 µM | > 100 | > 100 | > 100 | > 100 | > 100 | > 100 µM |  | > 100 | 
9 | CC1=CCC(=O)[C@]2(C)C(CC(=O)O)[C@]3(C)C4=C(C)C(c5ccoc5)C[C@@H]4O[C@@H]3[C@H](O)[C@@H]12 (some centres not stated) | > 100 | > 100 µM | > 100 |  | > 100 | > 100 |  | > 100 µM | > 100 |  | 
10 | O=C(/C=C/c1ccc(OCCCOc2ccc(/C=C/C(=O)c3ccc(Cl)cc3)cc2)cc1)c1ccc(Cl)cc1 |  | > 100 µM | > 100 | > 100 | > 100 | > 100 | > 100 |  |  | > 100 | 
11 | c1ccc(C2C3=C(CCCC3)Nc3nnnn32)cc1 (configuration not stated) | > 100 | > 100 µM |  | > 100 | > 100 |  |  | > 100 µM | > 100 | > 100 | 
12 | COc1ccc(C2CCc3c(cnc4nc(N)nc(N)c34)C2)cc1 (configuration not stated) | > 100 | > 100 µM | > 100 | 65 | > 100 | 36 | > 100 |  | > 100 | > 100 | 
